# Test results as given in ChEMBL document CHEMBL1201862, “PubChem BioAssay data set” (2004).
# Active and inactive are the calls of the source.
# Assays:
# [1] = target: Sphingosine 1-phosphate receptor 2 (Homo sapiens, UniProt O95136); assay: Dose Response Cell Based Assay for Agonists of the S1P2 Receptor of Purchased Analogues. [Related pubchem assays: 729, 843, 854, 736 ]; type: functional
# [2] = target: Potassium voltage-gated channel subfamily KQT member 2 (Rattus norvegicus, UniProt O88943, W236L); assay: KCNQ2 channel potentiators, dose response, mechanism study for KCNQ2 potentiator project, cell-based, automated electrophysiology (AID 2603); type: functional
# Galanin receptor type 2 = Galanin receptor type 2 (Homo sapiens, UniProt O43603); assay: Dose Response cell-based high-throughput screening assay to identify antagonists of galanin receptor 2 (GALR2). [Related pubchem assays: 828, 866 ]; type: functional
# Chain of Galanin receptor type 2 (O43603 whole entry): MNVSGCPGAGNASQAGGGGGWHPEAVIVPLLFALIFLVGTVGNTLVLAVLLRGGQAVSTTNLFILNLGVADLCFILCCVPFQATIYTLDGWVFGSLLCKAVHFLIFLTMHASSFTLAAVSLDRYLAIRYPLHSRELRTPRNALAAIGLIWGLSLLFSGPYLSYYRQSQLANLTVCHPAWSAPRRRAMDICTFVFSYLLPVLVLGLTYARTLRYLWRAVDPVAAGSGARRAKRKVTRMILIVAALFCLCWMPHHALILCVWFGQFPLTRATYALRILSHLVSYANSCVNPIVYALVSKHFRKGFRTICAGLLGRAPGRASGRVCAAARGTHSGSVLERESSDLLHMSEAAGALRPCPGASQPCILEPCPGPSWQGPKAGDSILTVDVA
# INS1 = assay: beta cell apoptosis inhibitors, cytokine rescue, dose response, luminescence, retest (AID 449756); type: functional, cell-based; settings: Rattus norvegicus;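 further: cell death triggered by IL-1 beta plus TNF-alpha plus IFN-gamma mixture; protective hits raise ATP signal compared with cytokine alone wells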
# [3] = Luminescence Cell-Based Dose Response to Identify Activators of Luciferase Translation or Activity in H4-C Neuroglioblastoma Cells. [Related pubchem assays: 1829 (Project Summary), 1814 (Primary HTS)]; type: functional
# H4 = assay: Luminescence Cell-Based Dose Response HTS to Identify Activators of 5'UTR Stem-Loop Driven Prion Protein mRNA Translation in H4 Neuroglioblastoma Cells. [Related pubchem assays: 1829 (Project Summary), 1814 (Primary HTS)]; type: functional; settings: Homo sapiens
# [4] = Luminescence Cell-Based Dose Response HTS to Identify Activators of Luciferase Translation or Activity in H4 […] Cells. [Related pubchem assays: 1829 (Project Summary), 1814 (Primary HTS)]; type: functional
# [5] = Luminescence Cell-Based Dose Response to Identify Activators of 5'UTR Stem-Loop Driven Prion Protein mRNA Translation in H4-C Neuroglioblastoma Cells. [Related pubchem assays: 1829 (Project Summary), 1814 (Primary HTS)]; type: functional
# [6] = Luminescence Cell-Based Dose Confirmation to Identify Activators of 5'UTR Stem-Loop Driven Alpha-Synuclein mRNA Translation in H4 Neuroglioblastoma Cells. [Related pubchem assays: 1829 (Project Summary), 1814 (Primary HTS)]; type: functional
# [7] = Luminescence Cell-Based Dose Confirmation HTS to Identify Activators of 5'UTR Stem-Loop Driven Alpha-Synuclein mRNA Translation in H4 Neuroglioblastoma Cells. [Related pubchem assays: 1829 (Project Summary), 1814 (Primary HTS)]; type: functional
# [8] = Luminescence-based counterscreen assay for KLF5 inhibitors: dose response cell-based high throughput screening assay to identify cytotoxic compounds using the IEC-6 intestinal epithelial cell line. [Related pubchem assays: 1700 (Primary screen.), 1834 (Confirmation screen.), 1858 (Summary AID.), 1905 (Counterscreen.)]; type: functional
# Nonstructural protein 1 = Nonstructural protein 1 (Influenza A virus, UniProt Q194T2); type: functional, Influenza A virus (A/California/07/2009(H1N1))
# Chain of Nonstructural protein 1 (Q194T2 whole entry): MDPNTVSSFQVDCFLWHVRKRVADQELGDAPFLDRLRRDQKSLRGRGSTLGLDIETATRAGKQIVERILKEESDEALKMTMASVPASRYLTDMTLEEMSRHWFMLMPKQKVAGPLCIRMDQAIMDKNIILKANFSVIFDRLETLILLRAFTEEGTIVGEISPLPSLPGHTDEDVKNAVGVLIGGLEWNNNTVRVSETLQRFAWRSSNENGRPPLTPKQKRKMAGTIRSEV
# Caspase-6 = target: T1, Caspase-6 (Homo sapiens, UniProt P55212); assay: human caspase-6 inhibitors, dose response, biochemical, VEID-R110 fluorescence, cherry-pick (AID 720632)
# T1 sequence (P55212 whole entry): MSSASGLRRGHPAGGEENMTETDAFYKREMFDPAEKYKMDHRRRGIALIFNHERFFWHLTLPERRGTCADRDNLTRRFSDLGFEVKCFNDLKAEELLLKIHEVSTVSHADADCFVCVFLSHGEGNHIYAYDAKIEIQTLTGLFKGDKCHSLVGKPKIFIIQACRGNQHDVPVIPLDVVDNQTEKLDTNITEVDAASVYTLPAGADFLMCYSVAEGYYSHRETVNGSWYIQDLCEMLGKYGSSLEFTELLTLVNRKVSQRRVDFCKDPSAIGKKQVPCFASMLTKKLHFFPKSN
# [9] = inhibitors of firefly luciferase expression or activity, dose response, H4 neuroglioma cells, luminescence (AID 1990); type: functional, cell-based
# [10] = Luminescence Cell-Based Dose Response HTS to Identify Inhibitors of 5'UTR Stem-Loop Driven Prion Protein mRNA Translation in H4 Neuroglioblastoma Cells. [Related pubchem assays: 1827 (Project Summary), 1813 (Primary HTS)]; type: functional
# [11] = cytotoxicity toward NIH3T3 fibroblasts, dose response, counter-screen, cell-based, ATP luminescence, mouse fibroblasts (AID 2010); type: functional;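 further: cells exposed to compound for about 90 hours before reading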
# [12] = C. albicans growth with fluconazole, confirmation, fluorescence, retest (AID 2467); type: functional, cell-based
# [13] = inhibitors of intracellular T. cruzi replication, confirmation, NIH3T3 host cells, beta-gal luminescence (AID 2044); type: functional, cell-based;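 further: intracellular parasites grown in NIH/3T3 mouse fibroblasts as host cells; luminescent beta-galactosidase reporter signal from transgenic T. cruzi replicating inside host cells; inhibitors lower the luminescence signal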
# [14] = inhibitors of SNCA 5'UTR-driven reporter translation, confirmation, H4 neuroglioma cells, luminescence (AID 1988); type: functional, cell-based
# [15] = NIH-3T3 fibroblast cytotoxicity, dose response, cytotoxicity control, cell-based, fluorescence, Alamar Blue, secondary assay (AID 2327); type: functional;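 further: NIH-3T3 mouse fibroblasts cultured with fluconazole at 8 µg/mL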
# Mucolipin-3 = Mucolipin-3 (Homo sapiens, UniProt Q8TDD5); assay: Dose response cell-based high-throughput screening assay for agonists of the transient receptor potential channel ML3 (TRPML3). [Related pubchem assays: 1526, 1424, 1448 ]; type: functional
# Chain of Mucolipin-3 (Q8TDD5 whole entry): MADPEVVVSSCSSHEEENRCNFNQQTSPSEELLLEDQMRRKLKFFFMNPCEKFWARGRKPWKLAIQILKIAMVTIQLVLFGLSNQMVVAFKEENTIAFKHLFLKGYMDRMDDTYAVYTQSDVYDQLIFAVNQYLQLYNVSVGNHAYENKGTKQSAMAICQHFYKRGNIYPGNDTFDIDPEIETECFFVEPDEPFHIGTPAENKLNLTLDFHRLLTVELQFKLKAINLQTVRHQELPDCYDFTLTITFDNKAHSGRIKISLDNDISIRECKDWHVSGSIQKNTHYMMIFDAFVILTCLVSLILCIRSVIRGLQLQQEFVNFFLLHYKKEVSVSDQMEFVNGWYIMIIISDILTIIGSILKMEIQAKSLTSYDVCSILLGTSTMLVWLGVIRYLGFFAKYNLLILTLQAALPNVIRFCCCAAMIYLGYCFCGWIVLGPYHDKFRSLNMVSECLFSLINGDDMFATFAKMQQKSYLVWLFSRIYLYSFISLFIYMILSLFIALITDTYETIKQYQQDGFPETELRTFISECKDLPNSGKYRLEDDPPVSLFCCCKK
# Ion channel NompC = Ion channel NompC (Danio rerio, UniProt Q7T1G6); assay: Fluorescence counterscreen assay for TRPML3 agonists: dose response cell-based high-throughput screening assay to identify agonists of the transient receptor potential channel N1 (TRPN1). [Related pubchem assays: 1526, 1424, 1448 ]; type: functional
# [16] = inhibitors of Bluetongue virus cytopathic effect, confirmation, arbovirus, BSR cells (AID 1250); type: functional;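 further: protection from viral cytopathic effect measured as cell viability by ATP luminescence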
# [17] = M. tuberculosis H37Rv growth inhibitors, H37Rv strain (AID 1626); type: functional
# [18] = target: T2, Rac GTPase-activating protein 1 (Homo sapiens, UniProt Q9H0H5); assay: MgcRacGAP GTPase-activating activity inhibitors, confirmation, biochemical, ADP Hunter fluorescence, primary and confirmatory (AID 624330); type: functional
# T2 sequence (Q9H0H5 whole entry): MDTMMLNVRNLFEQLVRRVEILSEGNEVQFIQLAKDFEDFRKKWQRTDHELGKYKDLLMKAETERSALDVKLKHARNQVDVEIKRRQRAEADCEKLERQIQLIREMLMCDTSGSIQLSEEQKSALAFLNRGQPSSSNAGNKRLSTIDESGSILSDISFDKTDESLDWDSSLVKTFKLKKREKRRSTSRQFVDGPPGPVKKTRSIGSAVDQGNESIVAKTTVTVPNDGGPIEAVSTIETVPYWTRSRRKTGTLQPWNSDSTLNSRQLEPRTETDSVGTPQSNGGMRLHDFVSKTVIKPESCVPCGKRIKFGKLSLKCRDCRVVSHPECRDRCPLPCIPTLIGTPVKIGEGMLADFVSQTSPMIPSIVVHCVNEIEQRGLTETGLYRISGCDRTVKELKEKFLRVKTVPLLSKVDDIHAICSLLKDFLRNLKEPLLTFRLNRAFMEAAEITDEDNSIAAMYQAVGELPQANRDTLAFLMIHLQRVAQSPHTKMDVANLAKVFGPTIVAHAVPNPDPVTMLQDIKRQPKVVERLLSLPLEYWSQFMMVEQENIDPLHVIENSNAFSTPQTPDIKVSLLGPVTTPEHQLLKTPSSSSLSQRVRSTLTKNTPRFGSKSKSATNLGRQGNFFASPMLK
# [19] = target: Matrix metalloproteinase-14 (Homo sapiens, UniProt P50281); assay: Dose Response confirmation of uHTS hits for a small molecule inhibitors of MT1-MMP activation in a fluorescence assay set 1.; type: functional
# [20] = HeLa cell cytotoxicity, dose response, cytotoxicity control for MgcRacGAP inhibitor project (AID 624300); type: functional
# [21] = enhancers of respiration in Yfh1-depleted yeast, dose response, Friedreich's ataxia, plus single-dose screen (AID 1465); type: functional;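 further: yeast depleted of Yfh1p frataxin homolog grown on glycerol needing respiration; WST-1 tetrazolium dye reduction as measure of cellular dehydrogenase metabolic activity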
# [22] = target: T3, Kappa-type opioid receptor (Homo sapiens, UniProt P41145); type: functional
# T3 sequence (P41145 whole entry): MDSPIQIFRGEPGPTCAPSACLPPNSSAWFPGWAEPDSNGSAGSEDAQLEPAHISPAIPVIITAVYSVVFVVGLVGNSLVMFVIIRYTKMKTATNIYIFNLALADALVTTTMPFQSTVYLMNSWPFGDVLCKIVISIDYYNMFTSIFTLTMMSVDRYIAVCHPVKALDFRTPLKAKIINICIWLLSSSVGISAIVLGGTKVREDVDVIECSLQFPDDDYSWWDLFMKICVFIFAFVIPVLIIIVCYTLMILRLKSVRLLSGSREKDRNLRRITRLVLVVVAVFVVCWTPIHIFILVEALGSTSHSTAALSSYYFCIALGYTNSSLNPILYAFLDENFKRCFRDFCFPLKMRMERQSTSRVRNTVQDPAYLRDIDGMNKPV
# Beta-galactosidase = Beta-galactosidase (Escherichia coli, UniProt Q8VNN2); type: functional
# Chain of Beta-galactosidase (Q8VNN2 whole entry): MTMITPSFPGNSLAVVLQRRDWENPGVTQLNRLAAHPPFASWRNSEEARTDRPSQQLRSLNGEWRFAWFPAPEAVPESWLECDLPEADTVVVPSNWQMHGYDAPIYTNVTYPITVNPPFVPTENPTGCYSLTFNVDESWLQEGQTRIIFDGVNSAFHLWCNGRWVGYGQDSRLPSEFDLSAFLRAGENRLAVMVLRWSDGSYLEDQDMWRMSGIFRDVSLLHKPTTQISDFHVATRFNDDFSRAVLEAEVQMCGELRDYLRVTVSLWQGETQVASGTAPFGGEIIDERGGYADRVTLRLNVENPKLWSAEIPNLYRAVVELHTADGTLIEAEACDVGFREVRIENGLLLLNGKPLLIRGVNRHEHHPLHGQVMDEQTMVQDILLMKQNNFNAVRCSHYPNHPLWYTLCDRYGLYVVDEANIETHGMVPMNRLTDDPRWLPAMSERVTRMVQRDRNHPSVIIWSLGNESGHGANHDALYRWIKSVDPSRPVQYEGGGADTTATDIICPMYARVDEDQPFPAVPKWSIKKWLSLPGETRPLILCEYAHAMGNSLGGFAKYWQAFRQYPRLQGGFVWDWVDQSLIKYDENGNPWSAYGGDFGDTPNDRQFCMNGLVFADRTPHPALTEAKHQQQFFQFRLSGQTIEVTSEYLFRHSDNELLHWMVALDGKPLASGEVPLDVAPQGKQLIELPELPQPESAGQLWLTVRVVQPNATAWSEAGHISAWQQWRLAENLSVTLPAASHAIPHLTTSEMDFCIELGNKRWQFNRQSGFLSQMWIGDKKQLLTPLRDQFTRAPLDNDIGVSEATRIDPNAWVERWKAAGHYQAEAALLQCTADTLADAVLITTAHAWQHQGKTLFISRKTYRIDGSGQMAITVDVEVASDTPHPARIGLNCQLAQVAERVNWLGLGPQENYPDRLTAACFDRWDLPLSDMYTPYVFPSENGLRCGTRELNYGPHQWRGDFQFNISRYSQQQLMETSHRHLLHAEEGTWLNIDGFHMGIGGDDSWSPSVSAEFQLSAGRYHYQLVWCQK
# [23] = target: T3, Kappa-type opioid receptor; type: functional; remark: listed apart in the source
# [24] = target: Sphingosine 1-phosphate receptor 4 (Homo sapiens, UniProt O95977); assay: Fluorescence dose response cell-based high throughput screening assay for antagonists of the Sphingosine 1-Phosphate Receptor 4 (S1P4). [Related pubchem assays: 1524 (Confirmation in triplicates.), 1510 (Primary screen.)]; type: functional
# Chain of Sphingosine 1-phosphate receptor 4 (O95977 whole entry): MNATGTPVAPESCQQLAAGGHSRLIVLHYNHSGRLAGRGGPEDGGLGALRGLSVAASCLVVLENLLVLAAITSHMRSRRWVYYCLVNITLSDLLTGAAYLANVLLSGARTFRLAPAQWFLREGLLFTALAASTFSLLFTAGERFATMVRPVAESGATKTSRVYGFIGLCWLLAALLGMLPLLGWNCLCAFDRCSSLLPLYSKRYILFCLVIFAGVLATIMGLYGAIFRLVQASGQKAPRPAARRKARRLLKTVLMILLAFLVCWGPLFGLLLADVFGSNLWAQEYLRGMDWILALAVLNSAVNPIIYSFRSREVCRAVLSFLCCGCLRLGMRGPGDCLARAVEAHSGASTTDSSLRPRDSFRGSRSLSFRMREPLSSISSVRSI
# Vero = assay: cells; type: functional; settings: Chlorocebus sabaeus
# [25] = target: T4, Hepatocyte nuclear factor 4-alpha (Homo sapiens, UniProt P41235); type: functional, cell-based;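 further: biochemical luminescence-based dose-response counterscreen measuring inhibition of HNF4 dimerization, run alongside a screen for blockers of ABHD5–perilipin-5 interaction; split luciferase complementation of HNF4 fusion proteins in cell lysate measuring dimerization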
# T4 sequence (P41235 whole entry): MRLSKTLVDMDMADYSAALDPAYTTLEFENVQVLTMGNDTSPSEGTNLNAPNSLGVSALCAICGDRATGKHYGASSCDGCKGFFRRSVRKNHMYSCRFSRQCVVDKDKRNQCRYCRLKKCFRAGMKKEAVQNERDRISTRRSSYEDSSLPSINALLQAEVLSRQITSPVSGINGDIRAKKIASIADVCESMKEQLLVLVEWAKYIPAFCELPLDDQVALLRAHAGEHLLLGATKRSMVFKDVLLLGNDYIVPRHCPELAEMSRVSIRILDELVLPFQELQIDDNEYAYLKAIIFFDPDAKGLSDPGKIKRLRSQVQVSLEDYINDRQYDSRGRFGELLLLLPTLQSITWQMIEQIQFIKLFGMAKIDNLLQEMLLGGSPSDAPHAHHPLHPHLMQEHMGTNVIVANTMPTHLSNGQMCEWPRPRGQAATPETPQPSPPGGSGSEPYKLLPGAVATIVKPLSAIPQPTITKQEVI
# [26] = target: Sphingosine 1-phosphate receptor 1 (Homo sapiens, UniProt P21453); type: functional;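 further: Tango beta-arrestin reporter U2OS cells stimulated with S1P near its EC80; inhibitor potency meaning antagonism of receptor activation by the natural agonist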
# [27] = inhibitors of PGC1a acetylation in cells, dose response, cell-based, cherry-picked samples (AID 720514); type: functional;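 further: potency may reflect raised or lowered acetylation signal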
# Estrogen receptor = target: T5, Estrogen receptor (Homo sapiens, UniProt P03372); assay: potentiators of ERα–SRC-1 coactivator binding, dose response, biochemical, TR-FRET, ERα LBD (AID 737)
# T5 sequence (P03372 whole entry): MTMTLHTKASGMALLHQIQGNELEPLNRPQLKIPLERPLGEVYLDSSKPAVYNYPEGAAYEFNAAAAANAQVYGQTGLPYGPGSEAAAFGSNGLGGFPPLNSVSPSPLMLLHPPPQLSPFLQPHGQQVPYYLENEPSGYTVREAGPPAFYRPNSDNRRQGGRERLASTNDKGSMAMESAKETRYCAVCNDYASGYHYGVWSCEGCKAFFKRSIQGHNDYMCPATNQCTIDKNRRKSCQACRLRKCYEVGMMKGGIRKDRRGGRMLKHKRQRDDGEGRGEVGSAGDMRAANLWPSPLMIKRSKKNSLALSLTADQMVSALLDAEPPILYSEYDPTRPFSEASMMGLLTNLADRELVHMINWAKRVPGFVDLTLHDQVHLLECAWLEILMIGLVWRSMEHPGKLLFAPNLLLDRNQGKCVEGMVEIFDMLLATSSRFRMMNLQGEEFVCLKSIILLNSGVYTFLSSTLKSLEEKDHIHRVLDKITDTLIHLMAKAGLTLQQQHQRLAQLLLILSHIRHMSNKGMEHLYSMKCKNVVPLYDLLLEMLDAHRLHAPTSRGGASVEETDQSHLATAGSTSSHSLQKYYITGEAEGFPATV
# [28] = target: Voltage-gated inwardly rectifying potassium channel KCNH2 (Homo sapiens, UniProt Q12809); assay: hERG protection from proarrhythmic block, potency, dose response, cell-based, thallium flux (AID 2121); type: ADME
# Chain of Voltage-gated inwardly rectifying potassium channel KCNH2 (Q12809 whole entry): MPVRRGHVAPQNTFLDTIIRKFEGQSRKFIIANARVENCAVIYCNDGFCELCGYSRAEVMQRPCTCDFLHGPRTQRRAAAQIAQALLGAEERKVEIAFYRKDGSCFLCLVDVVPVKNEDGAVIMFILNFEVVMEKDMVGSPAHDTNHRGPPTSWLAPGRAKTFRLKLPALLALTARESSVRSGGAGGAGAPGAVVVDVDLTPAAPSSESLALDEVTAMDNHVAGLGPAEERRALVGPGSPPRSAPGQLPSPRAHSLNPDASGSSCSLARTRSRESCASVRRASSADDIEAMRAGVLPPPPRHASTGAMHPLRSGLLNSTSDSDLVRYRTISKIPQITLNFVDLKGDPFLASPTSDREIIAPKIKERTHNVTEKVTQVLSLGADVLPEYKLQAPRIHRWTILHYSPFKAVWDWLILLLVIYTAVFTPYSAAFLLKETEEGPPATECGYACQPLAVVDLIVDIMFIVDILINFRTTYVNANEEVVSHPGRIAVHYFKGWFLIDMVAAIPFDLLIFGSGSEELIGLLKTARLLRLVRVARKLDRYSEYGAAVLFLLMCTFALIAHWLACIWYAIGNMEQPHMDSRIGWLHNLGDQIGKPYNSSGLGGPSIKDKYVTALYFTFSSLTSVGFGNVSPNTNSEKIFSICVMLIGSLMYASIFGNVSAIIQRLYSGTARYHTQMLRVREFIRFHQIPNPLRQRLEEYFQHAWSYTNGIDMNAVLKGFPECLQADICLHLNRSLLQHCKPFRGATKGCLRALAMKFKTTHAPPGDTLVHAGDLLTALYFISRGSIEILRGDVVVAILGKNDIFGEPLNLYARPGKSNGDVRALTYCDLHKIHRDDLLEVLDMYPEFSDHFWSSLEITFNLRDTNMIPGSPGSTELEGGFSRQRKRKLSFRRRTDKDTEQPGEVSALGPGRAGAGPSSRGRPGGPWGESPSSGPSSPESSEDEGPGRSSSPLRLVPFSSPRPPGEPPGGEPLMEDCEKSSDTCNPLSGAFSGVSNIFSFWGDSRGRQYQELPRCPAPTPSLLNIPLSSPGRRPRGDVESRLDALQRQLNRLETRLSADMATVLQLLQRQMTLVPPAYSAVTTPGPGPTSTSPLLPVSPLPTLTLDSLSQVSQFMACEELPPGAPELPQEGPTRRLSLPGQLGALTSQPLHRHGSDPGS
# [29] = target: T6, Polyadenylate-binding protein 1 (Homo sapiens, UniProt P11940); assay: PABP1 MLLE–PAM2 binding inhibitor potency, dose response, biochemical, fluorescence polarization, FITC-PAM2 peptide (AID 602259); type: functional; settings: read-out: IC50_Mean
# T6 sequence (P11940 whole entry): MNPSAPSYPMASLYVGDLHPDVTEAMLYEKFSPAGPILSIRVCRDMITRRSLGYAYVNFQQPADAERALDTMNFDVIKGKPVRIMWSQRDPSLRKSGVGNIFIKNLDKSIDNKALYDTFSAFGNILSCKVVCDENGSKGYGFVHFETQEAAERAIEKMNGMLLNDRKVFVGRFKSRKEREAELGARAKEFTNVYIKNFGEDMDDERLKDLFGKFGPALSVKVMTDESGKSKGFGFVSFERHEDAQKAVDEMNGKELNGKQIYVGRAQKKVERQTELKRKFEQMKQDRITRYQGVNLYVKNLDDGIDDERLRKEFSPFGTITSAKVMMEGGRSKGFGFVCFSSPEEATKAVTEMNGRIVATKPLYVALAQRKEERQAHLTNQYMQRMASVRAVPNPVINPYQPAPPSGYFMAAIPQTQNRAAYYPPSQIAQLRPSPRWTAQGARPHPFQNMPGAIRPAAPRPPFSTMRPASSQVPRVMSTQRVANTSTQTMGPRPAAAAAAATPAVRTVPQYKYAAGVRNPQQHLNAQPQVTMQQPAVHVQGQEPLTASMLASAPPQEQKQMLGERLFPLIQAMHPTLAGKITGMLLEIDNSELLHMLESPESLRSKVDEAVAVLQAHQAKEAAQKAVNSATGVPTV
# [30] = target: T6, Polyadenylate-binding protein 1; assay: PABP1 MLLE–PAM2 interaction inhibitors, dose response, miRNA deadenylation inhibitor project, biochemical, fluorescence polarization, Cy5-PAM2 peptide, secondary (AID 602260); type: functional; settings: read-out: IC50_Mean
compound,measurement,setting,value
Cc1cc(C(=O)COC(=O)CN2C(=O)C3CCCCC3C2=O)c(C)n1Cc1ccccc1 (stereo unspecified),EC50,[1],> 30 µM (not active)
Cc1nc(C)c(-c2csc(Nc3ccccn3)n2)s1,EC50,[2],115 µM (active)
CCOC(=O)N1CCN(c2[nH]cnc3c4cc(F)ccc4nc2-3)CC1,IC50,Galanin receptor type 2,45.6 µM (not active)
same,AC50,INS1,5.61 µM (active)
CC1CCCCN1CCCNC(=O)c1ccc2nc(N3CCCCC3)sc2c1 (stereo unspecified),EC50,[3],397 nM (active)
same,EC50,H4,15.1 µM (active)
same,EC50,[4],< 100 nM (active)
same,EC50,[5],994 nM (active)
same,EC50,[6],593 nM (active)
same,EC50,[7],177 nM (active)
NS(=O)(=O)c1ccc(N=Nc2ccc(O)c3ncccc23)cc1,IC50,[8],10.7 µM (not active)
same,IC50,Nonstructural protein 1,7.62 µM (active)
same,AC50,Caspase-6,1.58 µM (active)
same,EC50,[9],9.04 µM (active)
same,EC50,[10],8.29 µM (active)
same,AC50,INS1,3.45 µM (active)
same,EC50,[11],10.4 µM (active)
same,EC50,[12],1.95 µM (active)
same,EC50,[13],4.07 µM (active)
same,EC50,[14],5.67 µM (active)
same,EC50,[15],32.2 µM (active)
CSc1nc2ccccc2nc1N(C)S(=O)(=O)c1ccc(C)cc1,EC50,Mucolipin-3,> 29.9 µM (not active)
same,EC50,Ion channel NompC,> 29.9 µM (not active)
Cc1ccc(C2C=C(c3ccc4c(c3)OCO4)Nc3ncnn32)cc1 (stereo unspecified),IC50,[16],38.9 µM (active)
COc1ccc(NCN2C(=O)CCC2=O)cc1,IC50,[17],> 100 µM (active)
CC1=NN(c2ccccc2)C(=O)/C1=C/C=C/C=C/N(C)C,IC50,[18],68.1 µM (active)
same,IC50,[19],23.3 µM (inactive)
same,CC50,[20],100 µM (active)
same,EC50,[21],> 100 µM (active)
same,IC50,[22],21.6 µM (inactive)
same,EC50,Beta-galactosidase,14.8 µM (active)
same,IC50,[23],> 32 µM
O=C(/C=C/c1ccccc1)CC(O)(c1ccccc1)C(F)(F)C(F)F (stereo unspecified),IC50,[24],1.7 µM (active)
same,CC50,Vero,17.5 µM (active)
same,IC50,[25],2.27 µM (active)
same,IC50,[26],30.6 µM (not active)
same,AC50,[27],12.4 µM (active)
CCc1nnc2sc(-c3ccc(NC(=O)c4ccc5c(c4)OCCO5)cc3)nn12,EC50,Estrogen receptor,32.2 µM (not active)
Cc1ccc(S(=O)(=O)N=C(S)NC2CCCCC2)cc1,EC50,[28],9.12 µM (active)
same,IC50,[29],> 66 µM (inactive)
same,IC50,[30],> 66 µM (inactive)
